From patent US12151000B2, “Tolerogenic artificial antigen-presenting cells” (THE JOHNS HOPKINS UNIVERSITY, priority 2019, dated 2024)

How the values were obtained:
immobilized hIL-2 = molecular target: T1, immobilized hIL-2 (Homo sapiens, UniProt P60568); assay: Bio-layer interferometry binding to immobilized hIL-2; conditions: biotinylated hIL-2 immobilized
T1 construct: The full hIL-2 cytokine (residues 1-133) and the extracellular domains; hexahistidine (C); made in house; host or cells: HEK 293F
Method: (§1) Bio-layer interferometry binding studies. […] Less than 5 signal units (nm) of receptor was immobilized to minimize mass transfer effects. […] An irrelevant protein was included in a reference well to subtract non-specific binding. Surface regeneration for all interactions was conducted using a 15 second exposure to 0.1 M glycine pH 3.0. Experiments were carried out in PBSA (phosphate-buffered saline, pH 7.3 plus 0.1% bovine serum albumin (BSA, Thermo Fisher Scientific)) at 25° C. Data was visualized and processed using the Octet® Data Analysis software version 7.1 (Molecular Devices). Equilibrium titration curve fitting and KD value determination was implemented using GraphPad Prism, assuming all binding interactions to be first order. Experiments were reproduced two times with similar results.
(§2) The binding affinities were also evaluated using bio-layer interferometry on an OCTET® instrument with biotinylated hIL-2 immobilized on a streptavidin-coated tip (FIG. 6B). […] Bio-layer interferometry based binding studies were also conducted to assess the interaction between F5111 IC LN15 and the IL-2Rα and IL-2Rβ receptor chains, to ensure that the single-chain antibody/cytokine fusion was biased toward engagement of IL-2Rα (which is highly expressed on TReg cells but not effector cells) compared with IL-2Rβ.

IL-2Rα^+ YT-1 cells = assay: YT-1 cell STAT5 phosphorylation, IL-2Rα+ cells; assay type: cell-based, human; conditions: for STAT5 activation on IL-2Rα^+ YT-1 cells: flow cytometry, 20 minutes stimulation; for selective activation of IL-2Rα^+ TReg-like cells over IL-2Rα^− TEff-like cells (bias): YT-1 cells with or without IL-2Rα
Method: (§3) YT-1 cell STAT5 phosphorylation studies. Approximately 2×10^5 IL-2Rα^− YT-1 or IL-2Rα^+ YT-1 cells were plated in each well of a 96-well plate and re-suspended in RPMI complete medium containing serial dilutions of the indicated treatments. Cytokine/antibody complexes were formed by incubating a 1:1 molar ratio of F5111 antibody to hIL-2 for 1 hour at 37° C. Cells were stimulated for 20 minutes at 37° C. and immediately fixed by addition of formaldehyde to 1.5% and 10 minute incubation at room temperature. Permeabilization of cells was achieved by resuspension in ice-cold 100% methanol for 30 minutes at 4° C. Fixed and permeabilized cells were washed twice with FACS buffer (phosphate-buffered saline [PBS] pH 7.2 containing 0.1% BSA [Thermo Fisher Scientific]) and incubated with Alexa Fluor® 647-conjugated anti-STAT5 pY694 (BD Biosciences) diluted in FACS buffer for 2 hours at room temperature. Cells were then washed twice in FACS buffer and mean fluorescence intensity (MFI) was determined on a CytoFLEX flow cytometer (Beckman-Coulter). Dose-response curves were fitted to a logistic model and half-maximal effective concentrations (EC50s) were calculated using GraphPad Prism data analysis software after subtraction of the mean fluorescence intensity (MFI) of unstimulated cells and normalization to the maximum signal intensity.
(§4) A cell signaling assay was performed on YT-1 human NK cells with or without IL-2Rα.

human IL-2 (hIL-2) = molecular target: T2, human IL-2 (hIL-2) (Homo sapiens, UniProt P60568); assay: Yeast surface binding study, yeast-displayed hIL-2, flow cytometry; conditions: yeast surface-displayed hIL-2
T2 construct: hIL-2 (residues 1-133) or mIL-2 (residues 1-149) were cloned into the pCT302 vector; made in house; host or cells: yeast (surface display)
Method: Yeast surface binding studies. For antibody binding studies on yeast, hIL-2 (residues 1-133) or mIL-2 (residues 1-149) were cloned into the pCT302 vector and presented on the surface of yeast, as described previously (Boder et al., Nat. Biotechnol., 15(6): 553-557 (1997)). […] Cells were then washed and stained with a 1:200 dilution of Alexa647-conjugated streptavidin (Thermo) in PBSA for 15 minutes at 4° C. After a final wash, cells were analyzed for antibody binding using a CytoFLEX flow cytometer (Beckman Coulter). Background-subtracted and normalized binding curves were fitted to a first-order binding model and equilibrium dissociation constant (KD) values were determined using GraphPad Prism. Studies were performed three times with similar results.
A rapid small-scale HEK 293F cell transfection assay was developed to optimize immunocytokine expression. Cells were transfected in 6-well plates with predefined ratios of heavy chain (HC) and IL-2-fused light chain (LC) plasmid DNA. After a 3-day incubation, secreted protein was captured from the supernatant with protein G resin, eluted with 0.1 M glycine pH 2.0, and analyzed via SDS-PAGE. […]
(§5) The binding affinities were also evaluated using bio-layer interferometry on an OCTET® instrument with biotinylated hIL-2 immobilized on a streptavidin-coated tip (FIG. 6B). […]

IL-2Rβ = molecular target: T3, IL-2Rβ (Homo sapiens, UniProt P14784); assay: Bio-layer interferometry binding to immobilized IL-2Rβ
T3 construct: the extracellular domains of the hIL-2Rα (residues 1-214) and hIL-2Rβ (residues 1-214) receptor subunits; hexahistidine (C); made in house; host or cells: HEK 293F
T3 sequence (P14784 27-240): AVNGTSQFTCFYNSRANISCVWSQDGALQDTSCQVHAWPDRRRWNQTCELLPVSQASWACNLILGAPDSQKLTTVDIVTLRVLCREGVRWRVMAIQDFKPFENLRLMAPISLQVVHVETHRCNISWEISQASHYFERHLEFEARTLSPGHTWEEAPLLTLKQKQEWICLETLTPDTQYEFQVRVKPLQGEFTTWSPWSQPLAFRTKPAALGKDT
Method: as §1, §2
(§6) Additionally, binding interactions between F5111 IC LN25 and LN35 with the human IL-2Rα (hIL-2Rα) and hIL-2Rβ subunits were measured using bio-layer interferometry on an Octet® instrument by immobilizing biotinylated hIL-2Rα and IL-2Rβ on streptavidin-coated tips.

IL-2Rα^− YT-1 cells = assay: YT-1 cell STAT5 phosphorylation, IL-2Rα− cells; assay type: cell-based, human; conditions: flow cytometry, 20 minutes stimulation
Method: as §3, §4

IL-2Rα = molecular target: T4, IL-2Rα (Homo sapiens, UniProt P01589); assay: Bio-layer interferometry binding to immobilized IL-2Rα
T4 construct: the extracellular domains of the hIL-2Rα (residues 1-214) and hIL-2Rβ (residues 1-214) receptor subunits; hexahistidine (C); made in house; host or cells: HEK 293F
T4 sequence (P01589 22-235): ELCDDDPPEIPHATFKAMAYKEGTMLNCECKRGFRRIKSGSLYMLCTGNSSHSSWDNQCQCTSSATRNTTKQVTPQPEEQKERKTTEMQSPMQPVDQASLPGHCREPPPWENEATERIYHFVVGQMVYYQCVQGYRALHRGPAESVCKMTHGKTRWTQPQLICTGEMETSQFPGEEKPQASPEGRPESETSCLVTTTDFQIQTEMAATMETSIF
Method: as §1, §5, §6

[1] = system: human PBMCs (TReg cells, CD8^+ and CD4^+ effector T cells); assay: Human PBMC STAT5 phosphorylation in T cell subsets; assay type: cell-based; conditions: human PBMCs from healthy donor whole blood
Method: Human PBMC STAT5 phosphorylation studies. Human PBMCs were isolated from whole blood of healthy donors via Ficoll gradient following manufacturer protocols and then incubated with ACK lysis buffer for removal of red blood cells. Approximately 1×10^6 human PBMCs were plated in each well of a 96-well plate and re-suspended in RPMI complete medium containing serial dilutions of the indicated treatments. Cytokine/antibody complexes were formed by incubating a 1:1 molar ratio of F5111 antibody to hIL-2 for 1 hour at 37° C. Cells were stimulated for 20 minutes at 37° C. and immediately fixed by addition of 1X Fix/Perm Buffer (BD Biosciences) and 50 minute incubation at 4° C. Permeabilization of cells was achieved by resuspension in Perm Buffer III (BD Biosciences) overnight at −20° C. […] Cells were then washed twice in FACS buffer and MFI was determined on a CytoFLEX flow cytometer (Beckman-Coulter). Dose-response curves were fitted to a logistic model and half-maximal effective concentrations (EC50s) were calculated using GraphPad Prism data analysis software after subtraction of the mean fluorescence intensity (MFI) of unstimulated cells and normalization to the maximum signal intensity. […]

[2] = system: CD4+ T cells from C57BL/6 mice; assay: pSTAT5 expression in C57BL/6 CD4+ T cells; assay type: cell-based, mouse
Method: FIG. 22 is a graph showing the results of B6 CD4+ cells stimulation with titrated encapsulated particle doses or equivalent free doses of F5111 for different lengths of time, and the analysis of pSTAT5 expression using flow cytometry. A dose titration for free and MP-loaded F5111 IC LN35 was observed, with maximum pSTAT5 expression achieved after 1 hour of stimulation.
To evaluate the functionality of F5111 IC-loaded particles, mouse CD4+ T cells were stimulated with F5111 IC-loaded microparticles to identify an optimal stimulation time for maximum pSTAT5 expression, and pSTAT5 expression was compared to that of cells stimulated with free F5111 IC. CD4+ T cells were isolated from C57BL/6 mice and incubated with various doses of F5111 IC-loaded microparticles or equivalent doses of free F5111 IC for 20, 40, 60, or 120 minutes.

[3] = system: CD4^+ T cells from B6 mice; assay: In vitro FOXP3+ cell expansion in B6 CD4+ T cells; assay type: cell-based, mouse; conditions: 3 days
Method: F5111 IC LN35-loaded microparticles or free F5111 IC LN35 (at a dose equivalent to the particle loading dose) were incubated with CD4+ cells from B6 mice for 3 days, and cells were analyzed for FOXP3 expression via flow cytometry.
To determine whether F5111 IC-encapsulated MPs could induce in vitro TReg cell expansion, CD4^+ T cells were isolated from the spleens of B6 mice and incubated with unconjugated F5111 IC or F5111 IC-loaded PLGA MPs for 3 days. Cells were then stained for CD4, CD25, and FOXP3, and analyzed using flow cytometry.

T1 sequence (P60568 21-153): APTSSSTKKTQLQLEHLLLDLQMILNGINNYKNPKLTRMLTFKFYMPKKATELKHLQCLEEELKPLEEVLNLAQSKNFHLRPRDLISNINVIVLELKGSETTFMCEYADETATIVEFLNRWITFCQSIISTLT
T2 sequence (P60568 21-153): as above

## F5111 IC LN15: immunocytokine: hIL-2 fused to N-terminus of F5111 antibody light chain by 15-amino acid (Gly4Ser)3 linker
Immobilized hIL-2
  binding affinity for hIL-2 relative to F5111 Ab: significant reduction in binding affinity
IL-2Rα^+ YT-1 cells
  STAT5 activation on IL-2Rα^+ YT-1 cells: only mildly impaired
Human IL-2 (hIL-2)
  binding affinity for hIL-2 relative to F5111 Ab: significant reduction in binding affinity
IL-2Rβ
  binding to IL-2Rβ compared to free IL-2: significantly impaired binding
IL-2Rα^− YT-1 cells
  STAT5 activation on IL-2Rα^− YT-1 cells: dramatically reduced
IL-2Rα
  binding to IL-2Rα compared to free IL-2: equal potency to the free IL-2 cytokine

## F5111 IC LN25: immunocytokine: hIL-2 fused to N-terminus of F5111 antibody light chain by 25-amino acid (Gly4Ser)5 linker
IL-2Rα^+ YT-1 cells
  selective activation of IL-2Rα^+ TReg-like cells over IL-2Rα^− TEff-like cells (bias): greater bias than F5111 IC LN15 and the hIL-2/F5111 complex
  STAT5 activation on IL-2Rα^+ YT-1 cells: sub-nanomolar concentrations
IL-2Rβ
  binding to IL-2Rβ compared to free IL-2: significant reduction in the binding affinity
IL-2Rα^− YT-1 cells
  STAT5 activation on IL-2Rα^− YT-1 cells: immeasurable

## F5111 IC LN35: immunocytokine: hIL-2 fused to N-terminus of F5111 antibody light chain by 35-amino acid (Gly4Ser)7 linker
[1]
  STAT5 activation of TReg cells compared to CD8^+ and CD4^+ effector T cells: significantly more potent activation
[2]
  stimulation time of maximum pSTAT5 activation: 60 minutes
[2]; various doses, 20, 40, 60, or 120 minutes
  activation (pSTAT5) of CD4^+ T cells: dose-dependent manner
IL-2Rα^+ YT-1 cells
  selective activation of IL-2Rα^+ TReg-like cells over IL-2Rα^− TEff-like cells (bias): greater bias than F5111 IC LN15 and the hIL-2/F5111 complex
  STAT5 activation on IL-2Rα^+ YT-1 cells: sub-nanomolar concentrations
[3]
  expansion of FOXP3+ cells compared to untreated cells: expanded FOXP3+ cells
IL-2Rβ
  binding to IL-2Rβ compared to free IL-2: significant reduction in the binding affinity
IL-2Rα^− YT-1 cells
  STAT5 activation on IL-2Rα^− YT-1 cells: immeasurable
